pIC50: −log10 of the molar value.
Target: T1, Menin [2-610] (UniProt O00255)
T1 construct: 2-610
T1 sequence (O00255 whole entry): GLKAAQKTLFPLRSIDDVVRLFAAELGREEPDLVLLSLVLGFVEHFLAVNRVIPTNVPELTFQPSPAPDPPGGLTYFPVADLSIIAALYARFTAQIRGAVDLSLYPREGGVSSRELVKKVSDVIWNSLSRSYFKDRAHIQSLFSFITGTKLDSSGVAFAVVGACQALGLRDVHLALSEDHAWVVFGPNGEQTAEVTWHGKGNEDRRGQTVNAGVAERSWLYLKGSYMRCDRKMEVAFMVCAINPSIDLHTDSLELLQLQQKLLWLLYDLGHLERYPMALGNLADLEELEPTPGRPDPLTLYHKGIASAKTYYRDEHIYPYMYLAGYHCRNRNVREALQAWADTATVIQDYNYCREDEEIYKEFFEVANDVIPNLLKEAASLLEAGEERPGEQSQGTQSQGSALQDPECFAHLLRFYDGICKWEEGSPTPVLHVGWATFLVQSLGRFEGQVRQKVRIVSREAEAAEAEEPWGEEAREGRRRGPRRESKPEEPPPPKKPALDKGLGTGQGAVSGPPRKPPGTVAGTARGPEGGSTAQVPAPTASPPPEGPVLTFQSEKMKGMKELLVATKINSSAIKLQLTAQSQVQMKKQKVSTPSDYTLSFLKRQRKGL
Experiment: Fluorescence Polarization Assay
Experimental: 4 μL of 5× test compound was added to each reaction well of the 384-well plate, and the corresponding volume of 10% DMSO was added to the control wells. Except the control wells, 8 μL of Menin protein reaction solution was added to each well. The reaction solution was incubated at room temperature for 30 minutes, and then 8 μL of MLL polypeptide reaction solution was added to each well. The final concentrations of DMSO in the test compound wells and control wells were all 2%. The 384-well plate was sealed and incubated at room temperature for 30 minutes in the dark.

pIC50: 8.66
SMILES: CCNC(=O)N1CCC(CN2CCC3(CC2)CN(c2ncnnc2Oc2ccc(F)cc2C(=O)N(CC)C(C)C)C3)CC1 [US20260055108, Compound 28]

— BindingDB's records for patent US20260055108 (Hutchmed, 2026)
